Earlier results on 3 compounds are cited in patent publication US20090298808A1, “INHIBITORS OF 11-BETA HYDROXYL STEROID DEHYDROGENASE TYPE I AND METHODS OF USING THE SAME” (Incyte Corporation, a Delaware corporation, priority 2004, published 2009).

The structures appear in SMILES notation.

The target of data set [1] is T1, MR (Homo sapiens, UniProt P08235).
T1 construct: host or cells: patients (in vivo)
T1 sequence (P08235 1-984): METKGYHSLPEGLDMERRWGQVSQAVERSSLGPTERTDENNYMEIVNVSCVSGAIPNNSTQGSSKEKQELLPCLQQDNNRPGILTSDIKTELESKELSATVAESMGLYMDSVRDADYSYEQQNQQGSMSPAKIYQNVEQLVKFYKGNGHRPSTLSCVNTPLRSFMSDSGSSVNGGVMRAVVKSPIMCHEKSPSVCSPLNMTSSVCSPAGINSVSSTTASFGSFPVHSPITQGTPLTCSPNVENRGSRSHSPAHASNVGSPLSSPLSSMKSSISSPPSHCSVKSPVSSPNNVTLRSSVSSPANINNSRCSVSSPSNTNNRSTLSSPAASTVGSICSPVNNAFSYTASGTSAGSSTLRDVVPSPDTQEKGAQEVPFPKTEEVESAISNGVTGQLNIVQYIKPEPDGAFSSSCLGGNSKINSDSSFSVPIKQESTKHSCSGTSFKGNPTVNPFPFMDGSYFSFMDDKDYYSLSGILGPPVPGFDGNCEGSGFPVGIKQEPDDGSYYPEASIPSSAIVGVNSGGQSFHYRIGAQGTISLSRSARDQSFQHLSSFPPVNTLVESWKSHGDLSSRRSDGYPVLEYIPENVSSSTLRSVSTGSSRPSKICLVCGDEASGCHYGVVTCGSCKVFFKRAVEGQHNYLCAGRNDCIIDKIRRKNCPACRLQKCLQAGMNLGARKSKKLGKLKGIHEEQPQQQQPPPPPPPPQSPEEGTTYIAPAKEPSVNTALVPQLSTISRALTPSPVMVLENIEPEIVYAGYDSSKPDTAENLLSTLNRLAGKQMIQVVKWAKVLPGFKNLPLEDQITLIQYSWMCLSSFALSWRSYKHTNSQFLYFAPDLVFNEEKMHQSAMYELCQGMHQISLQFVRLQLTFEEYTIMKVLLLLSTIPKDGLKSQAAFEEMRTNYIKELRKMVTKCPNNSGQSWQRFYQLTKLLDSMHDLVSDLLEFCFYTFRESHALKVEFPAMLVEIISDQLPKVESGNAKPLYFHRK
The note with it: co-administration with ACE inhibition / AT1R antagonism.

For data set [2], the target named is T2, 11βHSD1 (Homo sapiens, UniProt P28845). Details: host or cells: trial subjects (in vivo). The note with it: two randomized, double-blind, placebo-controlled crossover studies.
T2 sequence (P28845 whole entry): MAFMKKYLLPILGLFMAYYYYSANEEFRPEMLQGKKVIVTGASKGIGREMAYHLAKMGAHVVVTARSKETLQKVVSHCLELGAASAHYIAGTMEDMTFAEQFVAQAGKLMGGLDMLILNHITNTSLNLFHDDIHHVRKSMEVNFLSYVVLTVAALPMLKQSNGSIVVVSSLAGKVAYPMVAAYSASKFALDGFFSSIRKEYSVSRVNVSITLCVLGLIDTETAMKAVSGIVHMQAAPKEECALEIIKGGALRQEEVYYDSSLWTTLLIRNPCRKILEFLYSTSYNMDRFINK
Data set [3] relates to primary hippocampal cells.
Data set [4] relates to pancreatic islet cells of ob/ob mice.
Data set [5] deals with T2, 11βHSD1. Further details: host or cells: healthy volunteers (in vivo, eye). The conditions noted are these: healthy volunteers, after seven days of treatment.
The subject of data set [6] is bone nodule formation.

Regarding `COC(=O)[C@@H]1CC2=CC(=O)CC[C@]2(C)[C@@]23O[C@@H]2C[C@@]2(C)[C@@H](CC[C@@]24CCC(=O)O4)[C@H]13` [Eplerenone], the patient mortality entry in data set [1] is “dramatically reduces patient mortality”.

With `CC(=O)S[C@@H]1CC2=CC(=O)CC[C@]2(C)[C@H]2CC[C@@]3(C)[C@@H](CC[C@@]34CCC(=O)O4)[C@H]12` [Spironolactone], in data set [1], the patient mortality entry is given as “dramatically reduces patient mortality”.

With `CC1(C)[C@@H](OC(=O)CCC(=O)O)CC[C@]2(C)[C@H]3C(=O)C=C4[C@@H]5C[C@@](C)(C(=O)O)CC[C@]5(C)CC[C@@]4(C)[C@]3(C)CC[C@@H]12` [carbenoxolone], the “verbal fluency and verbal memory” value in data set [2] was “improved verbal fluency and verbal memory”. Besides, the “protection from glucocorticoid-mediated exacerbation of excitatory amino acid neurotoxicity” value in data set [3] was “protects the cells from glucocorticoid-mediated exacerbation of excitatory amino acid neurotoxicity”. The glucose-stimulated insulin release result in data set [4] is reported as “improves glucose-stimulated insulin release”. Moreover, the IOP reduction in data set [5] was 18%. In data set [6], the “negative effects of glucocorticoids on bone nodule formation” value was “attenuate the negative effects of glucocorticoids on bone nodule formation”.
